Source: PMC11109155, “Cell-free biosynthesis and engineering of ribosomally synthesized lanthipeptides” (Nature Communications, 2024)

Legend:
[1] = system: Staphylococcus aureus RN4220; assay: Agar diffusion assay (diameter of zone of inhibition); assay type: cell-based; conditions: for DZI, diameter of zone of inhibition: LB agar, 6 mm paper disks, 37 °C 16 h, peptides 1 mM (SalB & B-1: cell-free synthesized, purified mixture; SalB and SalB-1: produced in vivo, purified), Kan 50 μg/mL positive control, representative of n = 3; for Antimicrobial activity against Staphylococcus aureus RN4220 (in words): agar diffusion assay, in vivo and cell-free produced peptides, 1 mM
From the text: Fig. 2 In vitro expression, modification, and maturation of salivaricin B in UniBioCat. a The gene cluster (top) and catalytic steps (bottom) of salivaricin B biosynthesis. Dha, dehydroalanine; Dhb, dehydrobutyrine; Abu, α-aminobutyric acid. b Western-blot analysis of the cell-free expressed precursor peptide (left: SboA, 7.8 kDa) and modification enzymes [right: SboM (113 kDa) and SboT (83 kDa) are co-expressed]. Peptides/enzymes are labeled with the anti-His antibody. M, protein marker; T, total protein; S, soluble protein. Results were reproduced three times independently; representative data are shown. c MALDI-TOF-MS analysis of the precursor peptide (left: 6x His-tagged SboA, [M + H]^+ m/z = 7355) and modified precursor peptides (right: dehydrated 6x His-tagged SboA, [M-H2O + H]^+ m/z = 7337, [M-2H2O + H]^+ m/z = 7319, and [M−4H2O + H]^+ m/z = 7283). d MALDI-TOF-MS (left), LC-MS (middle), and MS/MS (right) analysis of matured salivaricin B. e MALDI-TOF-MS (left), LC-MS (middle), and MS/MS (right) analysis of the analog salivaricin B−1 with one additional amino acid alanine at the N-terminus. f Antimicrobial activity assay of salivaricin B (SalB) and salivaricin B-1 (SalB-1). “SalB & B-1” was cell-free synthesized and purified for the activity assay (note that the sample used was a mixture of SalB and B-1 with a concentration of 1 mM for the test). For in vivo produced SalB and SalB-1, 1 mM of each purified SalB and SalB-1 was used for the activity assay. NC, negative control; Kan, kanamycin (50 μg/mL) as a positive control; DZI, diameter of zone of inhibition (in mm). Data shown representative of three independent experiments (n = 3). Source data are provided as a Source Data file. TEXT PRINTED IN THE PICTURE: (f) Kan: DZI: 22 | (f) SalB & B-1 (UniBioCat): DZI: 7.5 | (f) SalB (in vivo): DZI: 7.5 | (f) SalB-1 (in vivo): DZI: 9.5
Two approaches were used for testing antimicrobial activity, including solid agar plate diffusion and liquid medium cultivation. In the diffusion assay, the overnight cultivated indicator strain S. aureus RN4220 was mixed with the melted LB agar medium (a starting OD600 of 0.05). The mixture was poured onto the plate and allowed to solidify at room temperature for 30 min. Then, sterile paper disks (diameter 6 mm) were placed on the surface of the agar plate and 1 mM of each peptide was added to the paper disk. The plates were incubated at 37 °C for 16 h, and the diameter of the zone of inhibition (DZI, in mm) was measured for comparison. In the second approach, the assay was performed in 96-well plates, and cell-free synthesized mature peptides were directly used without purification. For the samples of salivaricin B variants, 80 μL of each sample (diluted if necessary) was mixed with 120 μL of LB medium, containing each variant at a roughly final concentration of 6–7 μM and the indicator strain S. aureus RN4220 (a starting OD600 of 0.02). For the samples of uncharacterized (Lan 1 - Lan 10) and three known (lacticin 481, ruminococcin A, and nukacin ISK-1) lanthipeptides, 80 μL of the cell-free reaction mixture was added directly to the liquid cultivation without quantification. The 96-well plates were incubated at 37 °C and 150 rpm for 12 h. During the cultivation, OD600 values were measured every 2 h and ΔOD600 was calculated to compare the antimicrobial activity of tested samples. In all assays, kanamycin was used as a positive for comparison.

S. aureus RN4220 [2] = assay: Liquid medium cultivation in 96-well plates, growth inhibition as ΔOD600; assay type: cell-based, Staphylococcus aureus; conditions: peptides produced in vivo and purified, Supplementary Fig. 12 (50 μM, liquid) and Fig. 2f (1 mM, agar diffusion)
From the text: Fig. 3 Generation of salivaricin B mutants and their antimicrobial activity. a Representative MALDI-TOF-MS analyses of single-site mutagenesis at the position of Q6 or L20. b Representative MALDI-TOF-MS analyses of two-site mutagenesis at the positions of Q6 and L20. In (a) and (b), salivaricin B-1 based variants are the most abundant products in all analyses, which are indicated with the [M + H]^+ ions. c Quantification of salivaricin B mutants that are synthesized in UniBioCat reactions (see Supplementary Table 5 for the yield of each peptide variant). d Antimicrobial activity assay showing ΔOD600 profiles of S. aureus RN4220 growth treated with single-site (top) and two-site (bottom) mutants. […]
Two approaches were used for testing antimicrobial activity, including solid agar plate diffusion and liquid medium cultivation. […] The plates were incubated at 37 °C for 16 h, and the diameter of the zone of inhibition (DZI, in mm) was measured for comparison. […] For the samples of uncharacterized (Lan 1 - Lan 10) and three known (lacticin 481, ruminococcin A, and nukacin ISK-1) lanthipeptides, 80 μL of the cell-free reaction mixture was added directly to the liquid cultivation without quantification. […] During the cultivation, OD600 values were measured every 2 h and ΔOD600 was calculated to compare the antimicrobial activity of tested samples. […]

Bacillus subtilis = assay: MIC (broth microdilution) and IC50 determination; assay type: cell-based; conditions: LB, 37 °C, 130 rpm
Description: (§1) MIC values were determined by using a broth microdilution method. Overnight cultures of each indicator strain were diluted to 5 × 10^5 CFU mL^−1 using fresh LB medium and distributed into 96-well plates. Then, the cells were treated with twofold serial dilutions of the purified peptides (i.e., salivaricin B and variants). The total volume of each cultivation was 200 μL per well, consisting of 175 μL bacteria cells and 25 μL diluted peptides. The final concentrations of each peptide were set at 0.12, 0.25, 0.5, 1, 2, 4, 8, and 16 μM. The positive growth control wells only contained bacterial cells without addition of peptides. The plates were incubated with 130 rpm at 37 °C for B. subtilis and M. luteus and 30 °C for L. lactic. After incubation, the lowest peptide concentration, which inhibited 90% of the bacterial growth, was recorded as the MIC. The growth curves were used to determine IC50 values with GraphPad Prism (version 10.2.1, GraphPad Software).
(§2) Supplementary Table 6 Minimal inhibitory concentrations (MIC) and IC50 of salivaricin B and variants.
(§3) Bacillus subtilis Micrococcus luteus Lactococcus lactis
(§4) Peptides MIC IC50 MIC IC50 MIC IC50
(§5) (μM) (μM) (μM) (μM) (μM) (μM)
(§6) Source data are provided as a Source Data file.

Lactococcus lactis = assay: MIC (broth microdilution) and IC50 determination; assay type: cell-based; conditions: LB, 30 °C, 130 rpm
Description: as §1, §2, §3, §4, §5, §6

Micrococcus luteus = assay: MIC (broth microdilution) and IC50 determination; assay type: cell-based; conditions: LB, 37 °C, 130 rpm
Description: as §1, §2, §3, §4, §5, §6

S. aureus RN4220 [3] = assay: MIC and IC50 assay with the indicator strain S. aureus RN4220; assay type: cell-based, Staphylococcus aureus; conditions: purified peptides produced in vivo
Description: We next sought to test the antimicrobial activity of the mutated salivaricin B variants against the indicator strain S. aureus RN4220. To compare their activity, we first determined the concentrations of all peptide variants synthesized in UniBioCat reactions (Fig. 3c and Supplementary Table 5) and added an equal amount of each variant to the cell culture in 96-well plates. During the cultivation, OD600 values were measured every 2 h for a total of 12 h. […] Based on the single-site mutagenesis and activity assay, we performed a second-round mutation with two-site mutagenesis at both Q6 and L20 using eight selected variants (the combination leads to 15 two-site mutated variants). All these new variants could be synthesized and detected by MALDI-TOF-MS (see Fig. 3b for representative analyses). […] To further verify their activity and compare to standard in vivo approaches, six variants including single- and two-site mutation were selected to be produced by in vivo expression/modification and in vitro digestion for maturation. […] Additionally, we evaluated the MIC and IC50 of four strong variants (see Supplementary Fig. 12 for SalB_Q6H, SalB_L20M, SalB_L20I-Q6H, and SalB_L20M-Q6H) against three other indicator strains, including Bacillus subtilis, Micrococcus luteus, and Lactococcus lactis.
MIC values were determined by using a broth microdilution method. […]

[4] = read-out: IC50 of salivaricin B, previous report; cited from earlier work
Description: We next sought to test the antimicrobial activity of the mutated salivaricin B variants against the indicator strain S. aureus RN4220. To compare their activity, we first determined the concentrations of all peptide variants synthesized in UniBioCat reactions (Fig. 3c and Supplementary Table 5) and added an equal amount of each variant to the cell culture in 96-well plates. During the cultivation, OD600 values were measured every 2 h for a total of 12 h. […] Based on the ...

[5] = broth microdilution, 5 × 10^5 CFU mL^−1, purified peptides 0.12–16 μM twofold dilutions, lowest concentration inhibiting 90% of growth
[6] = from growth curves, GraphPad Prism, purified peptides 0.12–16 μM

| Compound | DZI, diameter of zone of inhibition [1] [mm] | Antimicrobial activity against Staphylococcus aureus RN4220 (in words) [1] | Antimicrobial activity compared with salivaricin B, purified peptides (in words) (S. aureus RN4220 [2]) | MIC, Bacillus subtilis (Bacillus subtilis; [5]) [µM] | IC50 (Bacillus subtilis; [6]) [nM] | MIC, Lactococcus lactis (Lactococcus lactis; [5]) [µM] | IC50 (Lactococcus lactis; [6]) [nM] | MIC, Micrococcus luteus (Micrococcus luteus; [5]) [µM] | IC50 (Micrococcus luteus; [6]) [nM] | IC50 (S. aureus RN4220 [3]) [nM] | IC50 [4] [nM] |
| --- | --- | --- | --- | --- | --- | --- | --- | --- | --- | --- | --- |
| AGGGVIQAbuIAlaHEAlaRMNAlaWQFLFDhbAlaAlaS (bicyclic or more) [Salivaricin B-1, salivaricin B-1, salivaricin B-like peptide with one additional amino acid alanine at the N-terminus] | 9.5 | clear inhibitory effects on cell growth | even higher antimicrobial activity than salivaricin B |  |  |  |  |  |  |  |  |
| GGGVIQAbuIAlaHEAlaRMNAlaWQFLFDhbAlaAlaS (bicyclic or more) [Salivaricin B, salivaricin B, class II lanthipeptide naturally produced by Streptococcus salivarius K12; wild type, made cell-free or in vivo] | 7.5 | clear inhibitory effects on cell growth |  | 4 | 1880 ± 10 | 4 | 1670 ± 80 | 2 | 1190 ± 50 | > 8000 | 8640 |
| NC[C@H]1O[C@H](O[C@H]2[C@H](O)[C@@H](O[C@H]3O[C@H](CO)[C@@H](O)[C@H](N)[C@H]3O)[C@H](N)C[C@@H]2N)[C@H](O)[C@@H](O)[C@@H]1O [Kan, kanamycin, reference compound] | 22 |  |  |  |  |  |  |  |  |  |  |
